This note sets out measurements from ChEMBL document CHEMBL3272066, “Synthesis of nitrosourea derivatives of sucrose as central nervous system anticancer agents” (J Med Chem, 1977).

The nature of series [1]: Antitumor activity against mouse ependymoblastoma cells allografted in C57BL/6 mouse at 130 mg/kg, ip administered from day 1 to day 5 relative to control. The class given is functional. Conditions: route intraperitoneal.
Series [2] in a line: Antitumor activity against mouse ependymoblastoma cells allografted in C57BL/6 mouse at 100 mg/kg, ip administered from day 1 to day 5 relative to control. It counts as functional. Conditions: route intraperitoneal.
Series [3] deals with L1210. Briefly: Antitumor activity against mouse L1210 cells allografted in CDF1 mouse at 44 mg/kg, ip administered from day 1 to day 9 relative to control. It counts as functional. The note with it: route intraperitoneal.
Series [4] deals with L1210. Briefly: Antitumor activity against mouse L1210 cells allografted in CDF1 mouse at 29 mg/kg, ip administered from day 1 to day 9 relative to control. It counts as functional. Conditions: route intraperitoneal.
The test system of series [5] is L1210. Briefly: Antitumor activity against mouse L1210 cells allografted in CDF1 mouse at 66 mg/kg, ip administered from day 1 to day 9 relative to control. The class given is functional. Conditions: route intraperitoneal.
In series [6] the test system is L1210. Nature of the series: Antitumor activity against mouse L1210 cells allografted in CDF1 mouse at 100 mg/kg, ip administered from day 1 to day 9 relative to control. The class given is functional. Conditions: route intraperitoneal.
The subject of series [7] is L1210. Nature of the series: Antitumor activity against mouse L1210 cells allografted in CDF1 mouse at 50 mg/kg, ip administered from day 1 to day 9 relative to control. The class given is functional. Conditions: route intraperitoneal.
The test system of series [8] is L1210. Briefly: Antitumor activity against mouse L1210 cells allografted in CDF1 mouse at 200 mg/kg, ip administered from day 1 to day 9 relative to control. It counts as functional. The note with it: route intraperitoneal.
The nature of series [9]: Antitumor activity against mouse ependymoblastoma cells allografted in […] mouse at 100 mg/kg, ip administered from day 1 to day 5 relative to control. The class given is functional. Conditions: route intraperitoneal.
Series [10] is described as follows: Antitumor activity against mouse ependymoblastoma cells allografted in […] mouse at 50 mg/kg, ip administered from day 1 to day 5 relative to control. It counts as functional. The note with it: route intraperitoneal.
The nature of series [11]: Antitumor activity against mouse ependymoblastoma cells allografted in […] mouse at 200 mg/kg, ip administered from day 1 to day 5 relative to control. It counts as functional. The note with it: route intraperitoneal.
The subject of another series is Mus musculus. Nature of the series: Toxicity in […] mouse allografted with mouse ependymoblastoma cells at 400 mg/kg, ip administered from day 1 to day 5 relative to control. The class given is organism-based. Also on record: dose 400 mg/kg, route intraperitoneal. Conditions: in vivo.

Structures are written as SMILES.

As for `CN(N=O)C(=O)N[C@@H](C=O)[C@@H](O)[C@H](O)[C@H](O)CO` [STREPTOZOCIN], the T/C in series [1] stood at 127%; in series [2], 144%; in the series with L1210 [3], 137%; in the series with L1210 [4], 117%; with L1210 [5] it was 109%; with L1210 [6] it was 107%.
For `CN(N=O)C(=O)NC[C@H]1O[C@@](CO)(O[C@H]2O[C@H](CNC(=O)N(C)N=O)[C@@H](O)[C@H](O)[C@H]2O)[C@@H](O)[C@@H]1O`, the T/C in the series on L1210 [7] was 107%; with L1210 [8], 137%; in series [9], 97%; in series [10] it was 111%; in series [11] it was 148%; with L1210 [6] it was 129%. Besides, the Activity entry in the series with Mus musculus is “Toxic”.
`CC(=O)OC[C@@]1(O[C@H]2O[C@H](CNC(=O)N(C)N=O)[C@@H](OC(C)=O)[C@H](OC(C)=O)[C@H]2OC(C)=O)O[C@H](CNC(=O)N(C)N=O)[C@@H](OC(C)=O)[C@@H]1OC(C)=O`: the T/C turned out to be 109% in the series on L1210 [7], 119% in the series on L1210 [8] and 105% in the series with L1210 [6].
On to `CN(N=O)C(=O)NC[C@H]1O[C@@](CNC(=O)N(C)N=O)(O[C@H]2O[C@H](CNC(=O)N(C)N=O)[C@@H](O)[C@H](O)[C@H]2O)[C@@H](O)[C@@H]1O`, for which the T/C was found to be 110% in the series on L1210 [7]; 137% in the series on L1210 [8]; 120% in series [9]; 97% in [10]; 133% in series [11]; 117% in the series with L1210 [6]. Further, the Activity entry in the series on Mus musculus is reported as “Non-toxic”.
Consider `CC(=O)O[C@@H]1[C@@H](OC(C)=O)[C@@H](O[C@]2(CNC(=O)N(C)N=O)O[C@H](CNC(=O)N(C)N=O)[C@@H](OC(C)=O)[C@@H]2OC(C)=O)O[C@H](CNC(=O)N(C)N=O)[C@H]1OC(C)=O`, for which the T/C in the series with L1210 [7] is 104%; in the series with L1210 [8], 120%; in the series on L1210 [6], 102%.

As usually defined, the T/C is the result in the treated group divided by that in the control group, in per cent.
